How the values were obtained:
[1] = Ocular pharmacokinetics in albino rats (iris-ciliary body, 3H-A01); format: in vivo, rat
Text: Eight albino rats (RccHan/Wist) and 18 pigmented rats (HsdOla/LH) were obtained from Envigo Laboratories B.V. (The Netherlands) and were used in pharmacokinetic experiments. Additional 13 albino and 13 pigmented rats were used in generation of the analytical standards. Young adult (3–4 months; 340–445 g) rats were used.
To conduct the pharmacokinetic study, bromo-containing CAI A15 (molecular structure presented in Table 1) was conveniently converted into [^3H]-A01 through catalytic dehalogenation in tritium gas. A15 (3.05 mg, 8.2 μmol) was dissolved in dimethylformamide (0.3 mL) and exposed to 99 mbar of tritium gas in a tritium manifold system for 1.5 h in the presence of 10% palladium on carbon (0.57 mg). Following filtration, the reaction mixture underwent double lyophilization with 1 mL ethanol to eliminate labile tritium. […] The crude material was purified via high-performance liquid chromatography, employing a Reprosil-Pur C18-HD column (250 × 10 mm, 5 μm), with a mobile phase comprising 40% acetonitrile in 50 mM ammonium hydrogen carbonate. Purified fractions were subsequently combined, subjected to solid-phase extraction, and eluted with ethanol. Radiochemical analysis indicated a purity exceeding 97%, with a molar activity of 0.29 TBq/mmol (7.9 Ci/mmol) and a total activity of 850 MBq (23 mCi). The solution of 1% A01 (10 mg/mL) was prepared similarly as in the IOP study (see Table 1) except that the solution contained also 72 μg/mL of [^3H]–A01 (specific activity 27.21 mCi/mg). The solution was prepared freshly for each experiment.
Seven μL of A01 solution (10 mg/mL including 72 μg/mL of ^3H–A01) was topically applied to both eyes of albino and pigmented rats. Rats were euthanized with carbon dioxide and cervical dislocation. The eyes (n = 4) of albino rats were collected 0.5, 2, 4, and 7 h after treatment. The eyes of pigmented rats were dissected 0.5, 2, 4, 7, 24, 48, 72, 144, and 240 h after eye drop instillation. The eyes were enucleated and dissected immediately after euthanasia. Iris-ciliary body was dissected, snap frozen on dry ice, and stored at −80 °C until analysis. The analyses were conducted within 24 h from tissue dissection.
Bound and unbound radioactivity of tritiated A01 was determined from dissected iris-ciliary body samples. First, the tissues were mechanically homogenized and diluted with 0.9% sodium chloride (weight ratio 35:1). Then, cellular unbound A01 was released from the iris-ciliary body cells by freezing and thawing the solutions three times with dry ice and a water bath (37 °C). Thereafter, the supernatant and pellet were separated by centrifuging the samples for 10 min at 13,000 rpm. The pellets were dissolved by using 60 min incubation in 100 μL of Solvable (PerkinElmer, Waltham, MA, USA). The samples were then bleached with 10 μL of hydrogen peroxide for 30 min. The pellet volume was calculated as the difference between the total and supernatant volumes.
After subtracting the background radioactivity, the measured net counts per minute (cpm) were converted to disintegrations per minute (dpm) taking into account color quenching and device efficiency. Standard curves were generated for each matrix (albino and pigmented supernatants and pellets; Appendix Figure 1). […] Signal to noise ratios of measured pellet and supernatant samples in liquid scintillation counting are shown in Appendix Table 3.

[2] = In vitro melanin binding by microscale thermophoresis / initial fluorescence (Monolith NT.115 pico)
Text: Melanin binding of the CAI-II compounds was studied with a Monolith NT.115 pico (NanoTemper Technologies GmbH, Munich, Germany) device using the method of […] et al. […] Otherwise, normalized fluorescence signals and the ratio of relative fluorescence after heating (MST mode) were used. The MST software was used in expert mode to allow heating for 30 s. […] As ligand autofluorescence may interfere with the assay, their autofluorescence values were pretested with the detector used in experiment (nanoblue or pico-red). Fluorescence of the ligand should be below 20% of melanin fluorescence. Sample aggregation and adsorption to the capillaries were used also as exclusion criteria.

[3] = iris-ciliary body, single topical eye drop

- concentration at 4 h ([1]; RccHan/Wist (albino), rat, topical, 7 µL of 10 mg/mL solution per eye, albino iris-ciliary body, 4 h, read-out: free concentration by 4 h): ~50 ng/g
- tmax (bound drug) ([1]; albino eyes): 2 h
- tmax(total drug) ([1]; albino eyes): 2 h
- bound concentrations ([1]; albino iris-ciliary body): < 0.05 ng/mg
- bound fraction ([1]; albino iris-ciliary body): below 10%
- total concentration after decline ([1]; albino iris-ciliary body): ≈ 0.05 ng/mg
- Cmax,unbound ([1]; albino iris-ciliary body, 2 h postdosing): 0.50 ng/mg
- Cmax, total A01 concentration (bound + unbound) ([1]; albino iris-ciliary body, 2 h postdosing, 7 μL eye drop 10 mg/mL): 0.54 ng/mg
- AUC0-last in albino tissues, bound A01 [1, 3]: 0.09 (ng/mg) × h
- AUC0-last in albino tissues, total A01 [1, 3]: 1.37 (ng/mg) × h
- AUC0-last in albino tissues, unbound A01 [1, 3]: 1.29 (ng/mg) × h
- Melanin binding classification ([2]; class by Kd): high (high (<65 μM))
- Kd ([2]; melanin nanoparticles 0.5 mg/mL, IF or MST mode, 68% confidence, read-out: Kd ± confidence (melanin binding)): 48 ± 13 µM
Structure (SMILES): C/C(=N\Nc1ccc(S(N)(=O)=O)cc1)c1cccnc1 [A01]

From PMC11795524, “Melanin-Binding-Based Discovery of Topically Instilled Carbonic Anhydrase Inhibitors for Targeted Delivery and Prolonged Action in the Eye” (Molecular Pharmaceutics, 2025)
